# Assay results reported in article PMC7750294 (Journal of pharmaceutical sciences, 2020).
# “And” between values parts separate entries of the source, which are not always exact repeats. Identical values can stand only once. Like-named read-outs stand apart in the source and are kept apart here.
# Key:
# OATP1B3 [1] = molecular target: T1, OATP1B3 (Homo sapiens, UniProt Q9NPD5); details: cited from earlier work
# T1 sequence (Q9NPD5 1-702): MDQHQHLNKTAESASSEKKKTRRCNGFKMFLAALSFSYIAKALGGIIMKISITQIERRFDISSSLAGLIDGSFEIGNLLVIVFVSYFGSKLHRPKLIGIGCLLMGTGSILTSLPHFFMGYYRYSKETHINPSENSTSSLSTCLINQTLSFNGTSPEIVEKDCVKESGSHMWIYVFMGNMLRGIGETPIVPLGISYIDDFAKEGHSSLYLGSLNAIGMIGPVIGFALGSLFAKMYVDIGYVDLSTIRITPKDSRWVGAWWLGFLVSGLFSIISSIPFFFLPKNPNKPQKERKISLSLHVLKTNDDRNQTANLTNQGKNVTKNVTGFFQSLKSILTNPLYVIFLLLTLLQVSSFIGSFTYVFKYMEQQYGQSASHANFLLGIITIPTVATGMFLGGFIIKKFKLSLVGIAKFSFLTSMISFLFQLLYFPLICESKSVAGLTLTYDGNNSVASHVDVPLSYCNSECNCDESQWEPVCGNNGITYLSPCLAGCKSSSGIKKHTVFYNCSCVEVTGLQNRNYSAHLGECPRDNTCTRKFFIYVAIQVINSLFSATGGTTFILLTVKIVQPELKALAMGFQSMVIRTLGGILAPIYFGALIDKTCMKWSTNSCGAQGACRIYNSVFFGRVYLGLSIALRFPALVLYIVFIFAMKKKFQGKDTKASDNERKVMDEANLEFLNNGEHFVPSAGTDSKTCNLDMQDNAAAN
# [2] = cited from earlier work
# Estimation of Iin,max = experiment: Estimation of Iin,max; parameters: species or system human; details: 960 mg; faFg = 1; Eq. 4
# Caco-2 cell monolayers = details: cited from earlier work; for Reference Papp,caco-2 (7.4:7.4): ref Simcyp library value
# OATP1B1 [3] = molecular target: T2, OATP1B1 (Homo sapiens, UniProt Q9Y6L6); details: 10 μM vemurafenib, aqueous buffer; cited from earlier work
# T2 sequence (Q9Y6L6 1-691): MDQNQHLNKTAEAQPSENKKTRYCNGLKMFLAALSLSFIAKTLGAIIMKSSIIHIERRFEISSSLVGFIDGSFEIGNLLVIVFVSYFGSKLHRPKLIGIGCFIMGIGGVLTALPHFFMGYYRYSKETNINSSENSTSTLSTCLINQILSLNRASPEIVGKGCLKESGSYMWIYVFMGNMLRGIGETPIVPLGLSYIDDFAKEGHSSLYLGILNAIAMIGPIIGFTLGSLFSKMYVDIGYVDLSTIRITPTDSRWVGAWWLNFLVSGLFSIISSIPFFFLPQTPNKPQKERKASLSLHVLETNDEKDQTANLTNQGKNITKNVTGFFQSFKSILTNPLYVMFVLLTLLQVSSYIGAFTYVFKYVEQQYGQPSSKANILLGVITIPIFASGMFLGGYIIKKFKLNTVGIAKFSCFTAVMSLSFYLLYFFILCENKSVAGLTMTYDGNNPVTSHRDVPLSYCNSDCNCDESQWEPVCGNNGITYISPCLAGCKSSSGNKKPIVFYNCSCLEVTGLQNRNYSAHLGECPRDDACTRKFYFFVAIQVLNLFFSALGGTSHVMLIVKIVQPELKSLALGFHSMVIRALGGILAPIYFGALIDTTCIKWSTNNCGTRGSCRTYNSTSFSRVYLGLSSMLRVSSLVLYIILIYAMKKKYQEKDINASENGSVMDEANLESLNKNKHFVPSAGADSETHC
# [4] = cited from earlier work; remark: listed apart in the source
# [5] = cited from earlier work; for Aqueous solubility: highest/maximum aqueous solubility
# OATP1B3 [6] = molecular target: T1, OATP1B3; experiment: Inhibition of OATP1B3-mediated [3H]-CCK-8 accumulation in HEK293-OATP1B3 cells; format: cell-based
# OATP1B1 [7] = molecular target: T2, OATP1B1; experiment: Inhibition of OATP1B1-mediated [3H]-E217βG accumulation in HEK293-OATP1B1 cells; format: cell-based
# [8] = Vemurafenib PBPK model parameters; parameters: species or system human
# OATP1B1 [9] = molecular target: T2, OATP1B1; details: read-out: Apparent Km of transport by OATP1B1; cited from earlier work
# P-gp = details: cited from earlier work
# [10] = vemurafenib 150 μM in human plasma
# [11] = IC50,total against OATP1B1, 100% human plasma (pH 7.4), [3H]-E217βG 5 μM, 3 min, HEK293-OATP1B1
compound,measurement,setting,value
Cholecystokinin 8 [CCK-8],Km,OATP1B3 [1],~3.8 µM
CCCS(=O)(=O)Nc1ccc(F)c(C(=O)c2c[nH]c3ncc(-c4ccc(Cl)cc4)cc23)c1F [vemurafenib],Uptake in OATP1B3-overexpressing cells vs vehicle control cells,OATP1B3 [1],~ 1.5 fold
same,Time to steady state,[2]; 960 mg BID multiple dosing,15 to 21 days
same,"AUC0–8 h accumulation, day 15 vs day 1",[2]; 960 mg BID,23.2 ± 16.5 fold
same,CLpo,[2],"2.67 (53.5) L/h, CV%"
same,Median accumulation ratio,[2],7.36
same,Oral dose recovered in urine as parent,[2],0.97%
same,Time to steady state for most patients,[2],≤ 22 days
same,"ka, absorption rate constant","[2]; oral, population pharmacokinetic analysis",0.19 h⁻¹
same,"Iin,max (estimated total maximum plasma concentration at the inlet to the liver)","Estimation of Iin,max",132 µM and 132.5 µM
same,Passive permeability coefficient in Caco-2 cell monolayers,Caco-2 cell monolayers; ranitidine as reference compound,2.9 10^−6 cm/s
same,Decrease of OATP1B1-mediated [3H]-E217βG transport,OATP1B1 [3],~ 75% and 75%
same,Blood-to-plasma ratio (RB),[4]; [14C]-vemurafenib,0.58
same,Protein bound in human plasma,[4],> 99%
same,Unbound fraction in human plasma,[4]; independent of concentration 0.5–100 μM,0.0014
same,pKa (first),[5]; diprotic acid,7.9
same,pKa (second),[5]; diprotic acid,11.1
same,Aqueous solubility,[5],0.78 µM
same,Aqueous solubility,[5]; listed as Vemurafenib,~ 0.78 μM
same,Log PO:W,[5]; neutral species octanol:buffer partition coefficient,3
same,IC50,"OATP1B3 [6]; IC50,total against OATP1B3, 100% human plasma (pH 7.4), [3H]-CCK-8 1 μM, 3 min, HEK293-OATP1B3",231 µM
same,IC50 at 3 min,"OATP1B3 [6]; human, HEK293 cells over-expressing OATP1B3 (HEK293-OATP1B3), pH 7.4, probe [3H]-CCK-8 (1 μM), IC50,total against OATP1B3, 100% human plasma (pH 7.4), [3H]-CCK-8 1 μM, 3 min, HEK293-OATP1B3",232 ± 26 µM
same,Effect on OATP1B3-mediated transport vs vehicle control,"OATP1B3 [6]; vemurafenib 0.78 μM in HBSS buffer (pH 7.4), protein-free, CCK-8 1 μM, 3 min",does not affect
same,OATP1B3-mediated transport remaining,OATP1B3 [6]; [10],72.1 % of control
same,OATP1B3-mediated [3H]-CCK-8 transport,"OATP1B3 [6]; vemurafenib 500 μM in 100% human plasma, CCK-8 1 μM, 3 min",0.13 ± 0.04 fold of control
same,IC50,OATP1B1 [7]; [11],175 µM
same,Effect on OATP1B1-mediated transport vs vehicle control,"OATP1B1 [7]; vemurafenib 0.78 μM in HBSS buffer (pH 7.4), protein-free, E217βG […], 2 min",does not affect
same,OATP1B1-mediated transport remaining,OATP1B1 [7]; [10],60.2 % of control
same,OATP1B1-mediated [3H]-E217βG transport,"OATP1B1 [7]; vemurafenib 500 μM in 100% human plasma, E217βG 5 μM, 3 min",0.38 ± 0.1 fold of control
same,Vd,"[8]; human, oral, 960 mg",0.9 L/kg
same,CLR (renal clearance),[8]; set from 0.97% of oral dose recovered in urine as parent,0.01787 L/h
CNC(=C[N+](=O)[O-])NCCSCc1ccc(CN(C)C)o1 [ranitidine],"Reference Papp,caco-2 (7.4:7.4)",Caco-2 cell monolayers,1.2 10^−6 cm/s
"C[C@]12CC[C@@H]3c4ccc(O)cc4CC[C@H]3[C@@H]1CC[C@@H]2O[C@@H]1O[C@H](C(=O)O)[C@@H](O)[C@H](O)[C@H]1O [E217βG, estradiol 17 β-D-glucuronide]",Km,OATP1B1 [9],~8.3 µM
same,fu (reported protein binding),[4],0.39
CN/C(=N/CCSCc1nc[nH]c1C)NC#N [cimetidine],"Reference Papp,caco-2 (7.4:7.4)",Caco-2 cell monolayers,4 10^−6 cm/s
CO[C@H]1/C=C/O[C@@]2(C)Oc3c(C)c(O)c4c(O)c(c(/C=N/N5CCN(C)CC5)c(O)c4c3C2=O)NC(=O)/C(C)=C\C=C\[C@H](C)[C@H](O)[C@@H](C)[C@@H](O)[C@@H](C)[C@H](OC(C)=O)[C@@H]1C [rifampicin],IC50,OATP1B1 [7]; [11],2.1 µM
same,IC50,"OATP1B1 [7]; read-out: Estimated IC50,unbound,OATP1B1, IC50,total 2.1 μM × fu,plasma 0.116",0.24 µM
C[C@H]1O[C@@H](O[C@H]2[C@@H](O)C[C@H](O[C@H]3[C@@H](O)C[C@H](O[C@H]4CC[C@@]5(C)[C@H](CC[C@@H]6[C@@H]5C[C@@H](O)[C@]5(C)[C@@H](C7=CC(=O)OC7)CC[C@]65O)C4)O[C@@H]3C)O[C@@H]2C)C[C@H](O)[C@@H]1O [digoxin],Mean terminal half-life,P-gp; single dose of digoxin alone,35.0 h
same,Mean terminal half-life,P-gp; single dose of digoxin co-administered with vemurafenib,56.4 h
